We go through 37 compounds from ChEMBL document CHEMBL3616389, “Identification of Novel D-Aspartate Oxidase Inhibitors by in Silico Screening and Their Functional and Structural Characterization in Vitro” (J Med Chem, 2015).

Molecules are shown by their SMILES. Calls of active or inactive are those of the source. The calls are words filed in the database; no cut-off is given here.

Experiment [1] has as its target T1, D-aspartate oxidase (Homo sapiens) (UniProt Q99489).
T1 sequence (whole entry): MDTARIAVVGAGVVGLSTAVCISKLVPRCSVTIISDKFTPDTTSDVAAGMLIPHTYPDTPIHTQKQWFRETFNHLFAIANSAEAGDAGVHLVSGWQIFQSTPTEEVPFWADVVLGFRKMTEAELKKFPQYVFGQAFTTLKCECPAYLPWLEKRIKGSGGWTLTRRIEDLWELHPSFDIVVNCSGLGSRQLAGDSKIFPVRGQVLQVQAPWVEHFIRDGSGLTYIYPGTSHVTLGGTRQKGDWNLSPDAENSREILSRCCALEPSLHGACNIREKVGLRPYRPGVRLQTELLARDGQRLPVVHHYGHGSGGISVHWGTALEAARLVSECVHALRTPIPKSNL
The conditions noted are these: HeLa, 250 uM.

The target of experiment [2] is T2, D-aspartate oxidase (Homo sapiens, UniProt Q99489).
T2 sequence (Q99489 whole entry): T1 sequence (whole entry)

Experiment [3] has as its target T1, D-aspartate oxidase (Homo sapiens). The settings on record: HeLa, 250 uM. This is another data set of the same source.
For experiment [4], the target named is T3, D-aspartate oxidase (Mus musculus, UniProt Q922Z0).
T3 sequence (Q922Z0 whole entry): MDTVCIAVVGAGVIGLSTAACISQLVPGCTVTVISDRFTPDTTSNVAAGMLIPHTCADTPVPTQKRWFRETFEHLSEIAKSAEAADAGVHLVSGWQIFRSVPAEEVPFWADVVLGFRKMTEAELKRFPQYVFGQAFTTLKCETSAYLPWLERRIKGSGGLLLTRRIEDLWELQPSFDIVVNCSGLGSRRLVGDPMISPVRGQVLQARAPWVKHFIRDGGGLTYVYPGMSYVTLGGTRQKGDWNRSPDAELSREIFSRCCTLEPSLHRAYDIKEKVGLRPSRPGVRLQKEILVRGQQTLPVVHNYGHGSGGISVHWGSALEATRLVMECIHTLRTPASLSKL
As to the kind of experiment: Inhibition of mouse recombinant DDO using D-Asp.

Experiment [5] deals with HeLa. As to the kind of experiment: Effect on L-Asp level in human HeLa cells at 250 uM after 24 hrs by HPLC analysis. The experiment is classed as functional, cell-based.
In experiment [6] the target is T2, D-aspartate oxidase. As to the kind of experiment: Inhibition of human recombinant DDO expressed in Escherichia coli BL21(DE3) using D-Asp and D-Ala assessed as 2-oxo acid production after 10 mins by colorimetric assay.
Another experiment concerns the target D-amino-acid oxidase (Homo sapiens, UniProt P14920). As to the kind of experiment: Inhibition of human recombinant DAO expressed in Escherichia coli BL21(DE3) using D-Asp and D-Ala assessed as 2-oxo acid production after 10 mins by colorimetric assay.
The target in experiment [7] is T1, D-aspartate oxidase (Homo sapiens). Description: Competitive inhibition of human recombinant DDO expressed in Escherichia coli BL21(DE3) using D-Asp by Lineweaver-Burk plot analysis.
For experiment [8] the target is unchanged. The settings on record: HeLa, 250 uM. The source holds these as a separate data set.
Experiment [9] concerns the target T4, D-aspartate oxidase (Rattus norvegicus, UniProt D3ZDM7).
T4 sequence (D3ZDM7 whole entry): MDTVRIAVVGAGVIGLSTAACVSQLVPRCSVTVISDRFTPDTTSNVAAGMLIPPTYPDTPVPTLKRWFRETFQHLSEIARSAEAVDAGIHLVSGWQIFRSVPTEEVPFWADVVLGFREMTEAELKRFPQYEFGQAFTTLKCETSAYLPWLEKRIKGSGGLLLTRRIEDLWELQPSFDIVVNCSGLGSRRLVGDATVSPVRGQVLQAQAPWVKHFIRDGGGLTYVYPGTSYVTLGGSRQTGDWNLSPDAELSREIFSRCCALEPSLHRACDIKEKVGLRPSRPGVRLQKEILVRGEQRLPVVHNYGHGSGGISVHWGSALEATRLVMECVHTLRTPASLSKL
As to the kind of experiment: (§1) Inhibition of rat recombinant DDO using D-Asp.

Experiment [10] concerns the target T5, D-aspartate oxidase (Rattus norvegicus) (UniProt D3ZDM7).
T5 sequence (whole entry): T4 sequence (D3ZDM7 whole entry)
The description is as §1.

In experiment [11] the target is T1, D-aspartate oxidase (Homo sapiens). The conditions noted are these: HeLa, 1000 uM.
In experiment [12] the test system is HeLa. Description: Effect on D-Asp level in human HeLa cells at 1000 uM after 24 hrs by HPLC analysis. The class given is functional, cell-based.
Experiment [13] concerns HeLa. Description: Effect on L-Asp level in human HeLa cells at 1000 uM after 24 hrs by HPLC analysis. The class given is functional, cell-based.
Experiment [14] deals with T1, D-aspartate oxidase (Homo sapiens). The conditions noted are these: HeLa, 1000 uM. This is another data set of the same source.
The subject of experiment [15] is HeLa. Description: Effect on L-Asp level in human HeLa cells at 100 uM after 24 hrs by HPLC analysis. The class given is functional, cell-based.
Experiment [16] has as its system HeLa. Description: Effect on D-Asp level in human HeLa cells at 100 uM after 24 hrs by HPLC analysis. The class given is functional, cell-based.

For orientation: Ki means a dissociation constant, usually derived from enzyme kinetics or from competition with a known ligand. Broadly, the IC50 is the midpoint of a concentration-inhibition curve.

Sequence of D-amino-acid oxidase (P14920 whole entry): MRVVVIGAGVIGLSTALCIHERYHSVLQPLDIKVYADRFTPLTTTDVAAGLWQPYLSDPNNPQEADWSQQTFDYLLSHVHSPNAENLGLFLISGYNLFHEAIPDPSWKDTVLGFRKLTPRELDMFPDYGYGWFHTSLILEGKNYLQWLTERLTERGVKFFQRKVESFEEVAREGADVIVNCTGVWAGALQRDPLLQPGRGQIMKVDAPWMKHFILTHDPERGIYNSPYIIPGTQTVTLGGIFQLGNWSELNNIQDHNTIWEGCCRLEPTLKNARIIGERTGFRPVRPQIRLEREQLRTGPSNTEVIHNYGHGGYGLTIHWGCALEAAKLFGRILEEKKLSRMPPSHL

On to `Nc1cncc(C(=O)O)c1`, for which the inhibition entry in experiment [1] is “inactive”. For the same compound, the Ki is 0.0038 mM on D-aspartate oxidase [2], 0.00869 mM on D-aspartate oxidase [4] and 0.00589 mM at D-aspartate oxidase [9]. The inhibition entry in experiment [3], in experiment [7] and in [8] was “Active” throughout. The result in the experiment on HeLa [5] was inactive. Besides, the IC50 was 0.0219 mM at D-aspartate oxidase [6] and more than 2.5 mM at D-amino-acid oxidase. Besides, the inhibition result in experiment [10] is “Dose-dependent effect”.
Regarding `O=C(O)c1cncc(O)c1`, the IC50 on D-aspartate oxidase [6] was 3.35 mM; at D-amino-acid oxidase, more than 10 mM.
In the same order, the values of `Cc1cncc(C(=O)O)c1` are 5.47 mM and 1.5 mM.
In the same order, the values of `Nc1ccc(C(=O)O)nc1` are more than 10 mM and more than 10 mM.
On the same counts, the results for `Nc1cccc(C(=O)O)c1` [3-AMINOBENZOIC ACID] are more than 10 mM and 0.392 mM.
As for `O=C(O)c1cccnc1` [NIACIN], the half-inhibitory concentration (IC50) at D-aspartate oxidase [6] was found to be 2.78 mM; at D-amino-acid oxidase, 1.13 mM.
With `O=C(O)c1cncc(F)c1` [5-FLUORONICOTINIC ACID], the IC50 on D-aspartate oxidase [6] was more than 10 mM.
In the case of `Nc1cnccc1C(=O)O`, the IC50 at D-aspartate oxidase [6] and at D-amino-acid oxidase was more than 5 mM throughout.
As to `O=C(O)c1ncccc1O`, the IC50 at D-aspartate oxidase [6] is more than 10 mM; at D-amino-acid oxidase, 2.48 mM.
On the same counts, the results for `O=C(O)c1cc(F)ccc1O` are more than 10 mM and 1.05 mM.
In the same order, the values of `O=C(O)c1cc(Cl)ccc1O` [5-CHLOROSALICYLIC ACID] are more than 10 mM and 3.67 mM.
On to `Nc1ccncc1C(=O)O`, for which the IC50 on D-aspartate oxidase [6] and on D-amino-acid oxidase was more than 0.1 mM throughout.
As for `Nc1cccc(C(=O)O)n1`, the IC50 on D-aspartate oxidase [6] and on D-amino-acid oxidase was more than 0.1 mM throughout.
Take `O=C(O)c1cncc([N+](=O)[O-])c1`: the half-maximal inhibitory concentration (IC50) on D-aspartate oxidase [6] was more than 10 mM.
`Nc1cccnc1`: the IC50 at D-aspartate oxidase [6] and on D-amino-acid oxidase was more than 10 mM in each case.
As to `Nc1ccc(Cl)cc1C(=O)O`, the IC50 is more than 10 mM on D-aspartate oxidase [6] and 3.93 mM on D-amino-acid oxidase.
For the compound `CN(C)c1cncc(C(=O)O)c1`, at D-aspartate oxidase [6], the IC50 is more than 1 mM.
On to `Nc1ncccc1C(=O)O`, for which the IC50 on D-aspartate oxidase [6] and at D-amino-acid oxidase was more than 1 mM throughout.
Regarding `O=C(O)c1cc2ccccc2n1O`, the values for the half-maximal inhibitory concentration (IC50) at D-aspartate oxidase [6] and on D-amino-acid oxidase were more than 1 mM and 0.00134 mM, respectively.
With `O=C(O)c1ccccc1` [BENZOIC ACID], the values for the concentration for half-maximal inhibition (IC50) at D-aspartate oxidase [6] and at D-amino-acid oxidase were more than 10 mM and 0.134 mM, respectively.
In the same order, the values of `Nc1cc(C(=O)O)ccn1` are more than 0.1 mM and more than 0.1 mM.
Take `O=C(O)c1cncc(C(F)(F)F)c1`: on D-aspartate oxidase [6], the IC50 is more than 10 mM.
In the case of `O=C(O)CC(=O)O` [MALONIC ACID], the figures for the inhibition constant (Ki) on D-aspartate oxidase [2], on D-aspartate oxidase [4] and at D-aspartate oxidase [9] were 0.153 mM, 1.22 mM and 1.56 mM, respectively. The inhibition result in experiment [11] and in experiment [14] was “inactive” throughout. The IC50 at D-aspartate oxidase [6] was 0.879 mM; on D-amino-acid oxidase it was more than 10 mM. In addition, the inhibition entry in [7] is “Active”. The outcome in the experiment on HeLa [12] and with HeLa [13] was inactive.
For the compound `NC(=O)c1csc(C(=O)O)c1`, the IC50 at D-aspartate oxidase [6] is more than 5 mM; at D-amino-acid oxidase, 0.347 mM.
In the case of `Nc1ccc(C(=O)O)cn1`, the 50% inhibitory concentration (IC50) at D-aspartate oxidase [6] was 2.36 mM; on D-amino-acid oxidase, more than 2.5 mM.
For `O=C(O)c1cncc(C(=O)O)c1`, the IC50 on D-aspartate oxidase [6] was more than 10 mM.
Consider `COc1cncc(C(=O)O)c1`, for which the half-inhibitory concentration (IC50) at D-aspartate oxidase [6] was more than 10 mM.
As for `Cc1ccc(C(=O)O)c(O)n1`, the IC50 on D-aspartate oxidase [6] and on D-amino-acid oxidase was more than 10 mM each time.
For the compound `CNc1cncc(C(=O)O)c1`, the values for the IC50 on D-aspartate oxidase [6] and at D-amino-acid oxidase were 3.54 mM and more than 10 mM, respectively.
As to `O=C(O)c1cncc(Cl)c1`, the half-maximal inhibitory concentration (IC50) on D-aspartate oxidase [6] was more than 10 mM.
With `Nc1cccnc1C(=O)O`, the IC50 on D-aspartate oxidase [6] and on D-amino-acid oxidase was more than 1 mM each time.
As for `O=C(O)c1cncc(Br)c1`, at D-aspartate oxidase [6], the IC50 is more than 10 mM.
`Nc1ccnc(C(=O)O)c1`: the IC50 on D-aspartate oxidase [6] and on D-amino-acid oxidase was more than 0.1 mM throughout.
For `O=C(O)c1cncc(-c2ccccc2)c1`, the IC50 at D-aspartate oxidase [6] was more than 5 mM.
As for `Cc1cc(C(=O)O)c(N)s1`, the IC50 at D-aspartate oxidase [6] was 4.25 mM; at D-amino-acid oxidase, 1.44 mM.
Consider `O=C(O)c1cncc(S(=O)(=O)O)c1`, for which the IC50 on D-aspartate oxidase [6] was more than 10 mM.
Turning to `O=C(O)c1cn2cnnc2nc1O`, the Ki on D-aspartate oxidase [4] was 0.0326 mM; at D-aspartate oxidase [9] it was 0.0659 mM. The 50% inhibitory concentration (IC50) at D-amino-acid oxidase was more than 0.5 mM. The result in the experiment on HeLa [15] and with HeLa [16] was inactive. The inhibition result in experiment [10] was “Dose-dependent effect”.
